The source of these data is PubChem BioAssay AID1902 (Broad Institute, 2009).

Activity calls are given as the source filed them.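 The calls were made as follows: active = EC50 no more than a set limit of log units above the highest dose; inactive = the rest.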

This assay concerns the target S. pyogenes SKKanGAS, kanamycin survival, BacTiterGlo, 6 h. The experiment in a line: SKKanGAS survival reduction under kanamycin, dose response, streptokinase promoter inhibitor project, SKKanGAS strain, luminescence, dose confirmation (AID 1902).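 Also: lower survival reflects blocked streptokinase promoter driving kanamycin resistance gene.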
One may read the EC50 as the concentration that produces a half-maximal response. For the molecule `O=c1cc2oc3cc(O)c(O)cc3c(-c3ccccc3[N+](=O)[O-])c-2cc1O`, the 50% effective concentration (EC50) is 9.36 µM.

Regarding `CCCCC(=O)NC(c1ccc(Cl)cc1Cl)c1ccc2cccnc2c1O` (stereo not drawn), the EC50 was 1.97 µM.

Consider `CCN(CC)C(=S)Sc1c(-c2ccccc2)c2cc(Cl)ccc2[nH]c1=O`, for which the EC50 was 0.775 µM.

For the molecule `CCC(C)Sc1cccc(-c2nc3ccc(C)cn3c2NCc2ccccc2)c1` (stereo not drawn), the EC50 is 3.24 µM.

Take `S=c1[nH]nc(-c2cc(-c3ccccc3)n[nH]2)n1/N=C/c1ccc(Cl)cc1`: the EC50 is 8.67 µM.

In the case of `CC1=Nc2ccccc2/C1=C/c1sc(=N)n(-c2nccs2)c1O`, the EC50 was 0.452 µM.

With `Clc1ccccc1C(c1ccccc1)(c1ccccc1)n1ccnc1`, the EC50 is 6.21 µM.

Consider `Cc1nc(N2CCC(C)CC2)c2c(C)c(C(=O)Nc3ccccc3C(F)(F)F)sc2n1`, for which the EC50 is 6.04 µM.

Consider `Oc1c(CN2CCc3ccccc3C2)cc(Cl)c2cccnc12`, for which the EC50 was 2.15 µM.

In the case of `O=C(OCc1ccccc1)c1cccc(-c2nnn(Cc3ccccc3)n2)c1`, the EC50 was 2.73 µM.

For `CCS(=O)(=O)N1Cc2ccccc2CC1C(=O)Nc1nnc(SCc2ccc(C#N)cc2)s1` (stereo not drawn), the EC50 was 8.26 µM.

Consider `O=C(Nc1ccc(OC(F)F)cc1)Nc1cccc(C(F)(F)F)c1`, for which the EC50 is 6.7 µM.

On to `CC(C)C(=O)NC(c1ccco1)c1ccc2cccnc2c1O` (stereo not drawn), for which the EC50 was 2.44 µM.

`O=C(N/N=C/c1cc(Br)cc(Br)c1O)c1ccncc1`: the EC50 was 0.658 µM.

As to `CCC(CO)Nc1ncnc2c1cnn2-c1ccc(OC)cc1` (stereo not drawn), the EC50 was > 15 µM (inactive).

Regarding `COc1ccc(-c2cc(C3CCN(Cc4cccc(C(F)(F)F)c4)CC3)[nH]n2)cc1`, the EC50 is 9.26 µM.

On to `Cc1[nH]n(-c2ccccc2)c(=O)c1N=Nc1c(O)cc(S(=O)(=O)N(C)C)c2ccccc12`, for which the EC50 was 1.1 µM.

Consider `Cc1ccc(-n2c(-c3ccc(Br)cc3)c[n+]3c2CCc2ccc4cccnc4c2-3)cc1`, for which the EC50 is 3.6 µM.

Take `CC(C)OC(=O)c1c(NS(=O)(=O)c2ccccc2)sc2c1CCCC2`: the EC50 was 3.88 µM.

Turning to `Cn1c(CNC(=O)CNC(=O)c2ccc(F)cc2)cc(=O)n(C)c1=O`, the EC50 was > 15 µM (inactive).

Consider `Cc1ccc(NS(=O)(=O)c2ccc(Cl)c(NC(=S)NC(=O)C3CCCCC3)c2)cc1Cl`, for which the EC50 is 1.13 µM.

As to `COc1cccc(/C=N/NC(=O)c2c(C)nc3ccc(Cl)cn23)c1O`, the EC50 was 5.63 µM.

Consider `COCCOC(=O)c1c(C)nc(SCC(=O)Nc2ccc(C)cc2)c(C#N)c1-c1ccco1`, for which the EC50 is 6.68 µM.

`FC(F)Oc1ccccc1C1CC(c2ccc(Br)s2)Nc2ncnn21` (stereo not drawn): the EC50 was 2.83 µM.

In the case of `Cc1c(CCOC(=O)C2C3CC4CC(C3)CC2C4)sc[n+]1CC(=O)c1ccc(Br)cc1` (stereo not drawn), the EC50 is 7.28 µM.

As to `CCOC(=O)c1c(NC(=O)COC(=O)c2ccc(C)s2)sc2c1CC(C)(C)NC2(C)C`, the concentration for a half-maximal effect (EC50) was 3.7 µM.

With `CCOc1ccc(-c2csc(/C(C#N)=C\c3ccc(O)c([N+](=O)[O-])c3)n2)cc1`, the EC50 was 1.99 µM.

For `O=C(N/N=C/c1ccc([N+](=O)[O-])o1)c1ccc(NS(=O)(=O)c2cccs2)cc1`, the EC50 is 3.55 µM.

On to `CCC1C(=NO)C(CC)C(c2ccccc2)NC1c1ccccc1` (stereo not drawn), for which the concentration for a half-maximal effect (EC50) was 3.34 µM.

Regarding `O=C1c2ccccc2C(=O)c2c1oc(C(F)(F)F)c2C(=O)c1ccccc1`, the EC50 was 1.82 µM.

As to `N#CCC(=O)Nc1ccc(C(=O)OC(C(=O)Nc2cc(C(F)(F)F)ccc2Cl)c2ccccc2)cc1` (stereo not drawn), the EC50 was 3.64 µM.

`O=C1c2ccccc2CCC12N=NCC2c1ccc(Br)cc1` (stereo not drawn): the EC50 was 14.8 µM.

For the molecule `CC(C)(C)c1ccc(C(=O)N2CCN(C(=O)c3ccco3)CC2)cc1`, the EC50 was > 15 µM (inactive).

`C=CCSc1nc2ccccc2c(=O)n1Cc1ccccc1`: the EC50 is 15.3 µM.

Regarding `CCn1c(O)c(/C=N/N=C/c2ccccc2)c2ccc(C3=NNC(=O)CC3)cc21`, the EC50 was 4.3 µM.

On to `CCCCCn1c(CN2CCN(c3cc(Cl)ccc3C)CC2)nc2c1c(=O)[nH]c(=O)n2C`, for which the EC50 is 2.5 µM.

As for `C/C(=N\NC(=O)c1cc2ccccc2cc1O)c1cc2ccccc2o1`, the concentration for a half-maximal effect (EC50) is 1.47 µM.

On to `Cc1c(C(=O)N/N=C/c2ccc(Cl)cc2)[nH]c2ccc(Cl)cc12`, for which the EC50 was 2.71 µM.

`Cc1nn(C(C)C(=O)NC2C(=O)N3C(C(=O)O)=C(CSc4nnnn4C)CSC23)cc1Cl` (stereo not drawn): the EC50 was under 0.06 µM.

On to `CCOC(=O)c1nc(Nc2ccc(Nc3ccccc3)cc2)c2ccccc2n1`, for which the EC50 was 9.84 µM.

In the case of `CCOc1ccc(N(C)c2ccc(/C=C3/SC(=S)NC3=O)cc2)cc1`, the 50% effective concentration (EC50) is 4.3 µM.

For `CCOC(=O)c1c2c(n(C)c1COC)C(=O)C(=O)c1ccc(Br)cc1-2`, the EC50 is 3.66 µM.

For `O=C(COC(=O)c1ccccc1)Nc1ccccc1Sc1ccccc1`, the concentration giving a half-maximal response (EC50) is 8.89 µM.

In the case of `CCc1oc2ccccc2c1C(=O)c1cc(Br)c(O)c(Br)c1`, the EC50 was 6.55 µM.

Turning to `Cc1ccccc1/C=N/Nc1nc2ccccc2[nH]1`, the EC50 was 5.3 µM.

As for `Oc1[nH]c2ccccc2c1N=NC(=S)N1CCOCC1`, the 50% effective concentration (EC50) is 0.273 µM.

On to `CCCCCCCCCCCCN1C(=O)CSC1c1cccnc1` (stereo not drawn), for which the EC50 is 5.91 µM.

As to `Cc1ccc(/C=N/NC(=O)Cc2ccc(Cl)cc2)c(O)c1`, the EC50 was 0.866 µM.

For `CC(C)C[C@H](NC(=O)c1nc[nH]c1C(=O)NCc1ccccc1)C(=O)OCc1ccccc1`, the EC50 was 5.01 µM.

As to `O=C(Nc1cccc(-c2nnc(-c3ccccc3)o2)c1)c1ccc(Br)o1`, the EC50 was 8.48 µM.

Regarding `Cc1cc(Nc2ccccc2)nn1C(=O)c1ccc(Br)cc1`, the EC50 was 14.6 µM.

As for `C/C(=C\C(=O)OCCCCCCCCC(=O)O)C[C@@H]1OC[C@H](C[C@@H]2O[C@H]2[C@@H](C)[C@H](C)O)[C@@H](O)[C@H]1O`, the concentration for a half-maximal effect (EC50) is under 0.06 µM.

For `CCN(CC)c1ccc(/C=N/NC(=O)CCC(=O)NCc2ccccc2)c(O)c1`, the EC50 was 3.35 µM.

For `COc1cc(OC)cc(C(=O)Nc2nnc(NC(=S)Nc3ccccc3)s2)c1`, the concentration for a half-maximal effect (EC50) is 5.13 µM.

`CC(C)C(=O)NC(c1ccccc1)c1cc([N+](=O)[O-])c2cccnc2c1O` (stereo not drawn): the EC50 is 2.48 µM.

As for `CN(CC1CCCO1)S(=O)(=O)c1ccc(C(=O)Nc2nnc(-c3ccccc3)o2)cc1` (stereo not drawn), the EC50 is 2.62 µM.

For `COc1ccc(OCCn2c(NC(=O)c3ccco3)nc3ccccc32)cc1`, the EC50 is 3.38 µM.

Turning to `CC(=O)OCCCNc1cc(Sc2nc3ccccc3s2)c2nonc2c1[N+](=O)[O-]`, the concentration giving a half-maximal response (EC50) is 2.43 µM.

`Cc1c(C(=O)NNC(=S)NCc2ccc(Cl)cc2)oc2ccccc12`: the half-maximal effective concentration (EC50) is 2.17 µM.

With `CN1c2ccccc2C(C)(C)C12C=Nc1c(ccc3ccccc13)O2` (stereo not drawn), the EC50 is 2.16 µM.

Consider `CCOC(=O)c1c(NC(=S)N2CCN(C)CC2)sc(C)c1-c1ccccc1`, for which the EC50 was 6.51 µM.

In the case of `Cc1cccc(NS(=O)(=O)c2ccc(C3CCCCC3)cc2)c1`, the EC50 is 4.82 µM.

As for `CC(/C=C1\SC(=S)N(NS(=O)(=O)c2ccccc2)C1=O)=C\c1ccccc1`, the EC50 is 5.38 µM.

`O=C(/C=C/c1cccc([N+](=O)[O-])c1)c1ccc([N+](=O)[O-])o1`: the EC50 was 2.88 µM.

As to `COc1ccc2c(c1)[nH]c1c(=O)n(CCc3cnc[nH]3)cnc12`, the EC50 was > 15 µM (inactive).

Regarding `Cc1ccc(N=Nc2ccc(O)c3ncccc23)cc1`, the EC50 is 0.098 µM.

Turning to `C[C@H]1COc2c(N3CCN(C)CC3)c(F)cc3c(=O)c(C(=O)O)cn1c23`, the EC50 was 1.55 µM.

On to `Cc1ccc(-c2cc(-c3ccccc3Cl)[nH]n2)c(O)c1`, for which the EC50 was 2.19 µM.
